Measurements reported in US4560690A, “2-(N-substituted guanidino)-4-hetero-arylthiazole antiulcer agents” (Pfizer Inc., priority 1984, dated 1985).

Assays:
[1] = tested on: ethanol-induced gastric ulceration; assay: Inhibition of ethanol-induced ulceration in rats; type: in vivo, male rats; conditions: for cytoprotection (inhibition of ethanol-induced ulceration): same dosage, 30 mg/kg oral
Method: The antiulcer activity of the products of this invention was also determined by an ethanol-induced rat ulcer assay. In this test, overnight fasted male rats are given drug (at 30 or 3 mg/kg) or water orally fifteen minutes prior to an orally administered dose of absolute ethanol (1.0 ml). One hour after the ethanol challenge the animals (8/group) are killed and the stomachs examined for the presence of lesions. After sacrifice the abdomen is opened and a locking hemostat placed at the pylorus. Six ml of a 4% solution of formaldehyde was injected into the stomach with a gastric feeding tube and a second locking hemostat was used to seal the esophagus. The stomach was removed, opened along the greater curvature and examined for ulceration.
The scoring system used to quantitate the ethanol-induced lesions is given below.
For each group of animals an ulcer index is calculated as follows:
Ulceration Index=(the sum of the scores of the group)×(the sum of the number of ulcers in the group)×(the fraction of the group having any incidence of ulceration).
The percentage inhibition of ulcers is calculated as follows:
% Inhibition=100×[(ulcer index controls)-(ulcer index
drug-treated)].div.(ulcer index controls).

[2] = tested on: gastric acid secretion (pentagastrin-stimulated acid output from the gastric pouch); assay: Gastric acid antisecretory activity in pentagastrin-stimulated conscious Heidenhain pouch dogs; type: in vivo; conditions: Canis lupus familiaris; for inhibition in vivo at up to 2 mg/kg: at the same (oral 2 mg/kg) or a lower dose; for inhibition in vivo at 2 mg/kg: oral dose of 2 mg/kg, Heidenhain pouch dogs, pentagastrin
Method: The gastric acid antisecretory activity of compounds of the present invention was determined in overnight fasted, conscious Heidenhain pouch dogs. Pentagastrin (Pentavolon-Ayerst) was used to stimulate acid output by continuous infusion into a superficial leg vein at doses earlier determined to stimulate near maximal acid output from the gastric pouch. Gastric juice was collected at 30 minute intervals following the start of a pentagastrin infusion and measured to the nearest 0.1 ml. Ten collections were taken for each dog during an experiment. Acid concentration was determined by tritrating 1.0 ml of gastric juice to pH 7.4 with 0.1N sodium hydroxide using an Autoburette and a glass electrode pH meter (Radiometer).
Drug or vehicle was given intravenously or orally 90 minutes following the start of the pentagastrin infusion, at a dose of 2 mg/kg or less. Gastric acid antisecretory effects were calculated by comparing the lowest acid output after drug administration with the mean acid output immediately before drug.

histamine-H2 receptor = molecular target: T1, histamine-H2 receptor (Cavia porcellus, UniProt P47747); assay: Histamine-H2 antagonist activity in isolated guinea pig right atria (pA2); type: cell-based, Guinea pigs; conditions: Krebs-Henseleit buffer pH 7.4, 32°±2° C., histamine dose-response, * tested as the dihydrobromide salt, read-out: pA2 (apparent dissociation constant of the H2-receptor antagonist) (converted)
T1 construct: the heart removed and the right atria dissected free; from tissue; host or cells: guinea pig right atria (isolated, spontaneously beating)
T1 sequence (P47747 whole entry): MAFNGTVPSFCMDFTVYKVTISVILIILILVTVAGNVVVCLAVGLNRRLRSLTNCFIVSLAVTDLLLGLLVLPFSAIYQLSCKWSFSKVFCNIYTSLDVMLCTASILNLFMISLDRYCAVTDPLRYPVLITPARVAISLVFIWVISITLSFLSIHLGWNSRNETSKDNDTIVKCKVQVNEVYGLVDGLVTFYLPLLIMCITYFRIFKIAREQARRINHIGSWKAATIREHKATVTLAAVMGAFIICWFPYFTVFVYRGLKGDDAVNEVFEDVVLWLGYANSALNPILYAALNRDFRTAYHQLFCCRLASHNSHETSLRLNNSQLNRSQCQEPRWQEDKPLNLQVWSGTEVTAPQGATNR
Method: The histamine-H2 antagonist activity of compounds of the present invention was determined by the following procedure:
Guinea pigs are killed rapidly with a blow to the head, the heart removed and the right atria dissected free. Atria are suspended, isometrically, in a temperature-controlled (32°±2° C.) tissue bath (10 ml) containing oxygenated (95% O2; 5% CO2) Krebs-Henseleit buffer (pH 7.4) and are allowed to stabilize approximately one hour during which time the tissue bath is flushed several times. Individual atrial contractions are followed with a force-displacement transducer connected to a cardiotachometer and Grass polygraph recorder. After obtaining a dose-response curve to histamine, the bath containing each atrium is flushed several times with fresh buffer and the atria reequilibrated to basal rates. Following the return to basal rate, test compounds are added at selected final concentrations and the histamine dose-response curve is again determined in the presence of antagonist. Results are expressed as dose-ratios, the ratio of histamine concentrations required to produce one-half of maximal stimulation in the presence and absence of antagonist, and the apparent dissociation constant of the H2 -receptor antagonist pA2, is determined.

[3] = oral dose of 3 mg/kg, * tested as the dihydrobromide salt
[4] = * tested as the dihydrobromide salt
[5] = oral dose of 30 mg/kg, fifteen minutes prior to absolute ethanol

| Compound | Kb (histamine-H2 receptor) [nM] | inhibition of ethanol-induced ulceration [1, 3] | inhibition in vivo at up to 2 mg/kg [2, 4] [%] | inhibition of ethanol-induced ulceration [1, 5] | cytoprotection (inhibition of ethanol-induced ulceration) [1] [%] | inhibition in vivo at 2 mg/kg [2] [%] | inhibition in vivo at 0.1 mg/kg ([2]; iv, dose of 0.1 mg/kg (i.v.), * tested as the dihydrobromide salt) [%] |
| --- | --- | --- | --- | --- | --- | --- | --- |
| CCCCCCC(C)NC(=N)Nc1nc(-c2c[nH]c(C)n2)cs1 (stereo not shown) [Example 6b, N-[4-(2-methylimidazol-4-yl)thiazol-2-yl]-N'-2-octylguanidine] | ≤ 63.1 | at least 40% | ≥ 64 | – | – | – | – |
| Cc1nc(-c2csc(N=C(N)NCCCCc3ccccc3)n2)c[nH]1 [Example 6o] | – | – | – | at least 77% | ≥ 90 | ≥ 24 | – |
| Cc1nc(-c2csc(N=C(N)NCCCc3ccccc3)n2)c[nH]1 [Example 6n] | ≤ 63.1 | – | – | – | – | ≥ 24 | – |
| Cc1nc(-c2csc(NC(=N)NCc3ccccc3)n2)c[nH]1 [Example 6l, N-[4-(2-methylimidazol-4-yl)thiazol-2-yl]-N'-benzylguanidine] | – | at least 40% | ≥ 64 | at least 77% | – | – | – |
| CCCCCCC(C)NC(=N)Nc1nc(-c2c[nH]c(C)n2)cs1 (stereo not shown) [Example 6j, N-[4-(2-methylimidazol-4-yl)thiazol-2-yl]-N'-2-octylguanidine] | – | – | – | at least 77% | – | – | – |
| Cc1nc(-c2csc(NC(=N)NCc3ccccc3)n2)c[nH]1 [Example 6a, N-[4-(2-methylimidazol-4-yl)thiazol-2-yl]-N'-benzylguanidine] | ≤ 63.1 | – | – | – | – | – | – |
| Cc1nc(-c2csc(N=C(N)NCCc3ccccc3)n2)c[nH]1 [Example 6m] | ≤ 63.1 | – | ≥ 64 | at least 77% | – | – | – |

The next lines start with results.

| Kb (histamine-H2 receptor) [nM] | Compound | inhibition of ethanol-induced ulceration [1, 3] | inhibition in vivo at up to 2 mg/kg [2, 4] [%] | inhibition of ethanol-induced ulceration [1, 5] | cytoprotection (inhibition of ethanol-induced ulceration) [1] [%] | inhibition in vivo at 2 mg/kg [2] [%] | inhibition in vivo at 0.1 mg/kg ([2]; iv, dose of 0.1 mg/kg (i.v.), * tested as the dihydrobromide salt) [%] |
| --- | --- | --- | --- | --- | --- | --- | --- |
| ≤ 63.1 | CCCCCCNC(N)=Nc1nc(-c2c[nH]c(C)n2)cs1 [Example 5*] | – | ≥ 64 | – | – | – | 58 |
| ≤ 126 | CCCCCNC(N)=Nc1nc(-c2c[nH]c(C)n2)cs1 [Example 6c] | – | ≥ 64 | – | ≥ 90 | – | – |
| ≤ 126 | CCCCCCCCNC(N)=Nc1nc(-c2c[nH]c(C)n2)cs1 [Example 6g] | – | – | – | – | ≥ 24 | – |
| ≤ 63.1 | CCCCCCCNC(N)=Nc1nc(-c2c[nH]c(C)n2)cs1 [Example 6f] | – | – | at least 77% | ≥ 90 | ≥ 24 | – |
